These results are taken from article PMC8449059, “Structural and functional variation of chitin-binding domains of a lytic polysaccharide monooxygenase from Cellvibrio japonicus” (The Journal of Biological Chemistry, 2021).

For this test, the target named is T1, CjCBM5 (family 5 carbohydrate-binding module of CjLPMO10A) (Cellvibrio japonicus, UniProt B3PJ79).
T1 construct: gene cbp33A; isolated CBM5 domain, residues 251-309 of 397; extra N-terminal Met, C-terminal Ala + 6xHis tag kept; 15N-labelled; E. coli cytoplasmic expression (pNIC-CH)
Briefly: NMR titration, […]-HSQC chemical shift perturbation. The conditions noted are these: 50 mM sodium phosphate, pH 7.0, 10% D2O; 70 uM 15N-labelled protein; average of W283, T284, Q285, Y296, G297.

T1 sequence (B3PJ79 entry or part of it): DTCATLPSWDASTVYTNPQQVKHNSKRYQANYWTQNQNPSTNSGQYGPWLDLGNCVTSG

As usually defined, the Kd is a measure of binding affinity in units of concentration. For the compound `CC(=O)N[C@H]1[C@H](O[C@H]2[C@H](O)[C@@H](NC(C)=O)C(O[C@H]3[C@H](O)[C@@H](NC(C)=O)C(O[C@H]4[C@H](O)[C@@H](NC(C)=O)C(O[C@H]5[C@H](O)[C@@H](NC(C)=O)C(O[C@H]6[C@H](O)[C@@H](NC(C)=O)C(O)O[C@@H]6CO)O[C@@H]5CO)O[C@@H]4CO)O[C@@H]3CO)O[C@@H]2CO)O[C@H](CO)[C@@H](O)[C@@H]1O` (stereo partly shown) [chitohexaose], the Kd is 2000 ± 1000 µM.
